For the experiment, the target named is T1, PI3Kα H1047R (T47D cells) (Homo sapiens, UniProt P42336, H1047R).
T1 construct: endogenous in cells; host or cells: T47D cells
The experiment can be described thus: PI3Kα cellular assay: pAKT HTRF in T47D cells after EGF stimulation. In kind it is cell-based. The following applies: for IC50: T47D cells (PI3Kα H1047R), pAKT S473 HTRF, EGF stimulation; for T47D pAKT S473 HTRF IC50 (H1047R): T47D (H1047R) selectivity over SKBR3 (WT): selectivity of T47D (H1047R) over SKBR3 (WT) pAKT IC50. The essentials: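 pAKT read by HTRF in lysates of EGF-stimulated (20 ng/mL, 10 min) T47D H1047R cells. Before stimulation, serum-starved cells (16 h) received compound for 1 h at 37 °C, dosed from 10,000 nM down to 0.5 nM in 3-fold steps.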

T1 sequence (P42336 whole entry H1047R): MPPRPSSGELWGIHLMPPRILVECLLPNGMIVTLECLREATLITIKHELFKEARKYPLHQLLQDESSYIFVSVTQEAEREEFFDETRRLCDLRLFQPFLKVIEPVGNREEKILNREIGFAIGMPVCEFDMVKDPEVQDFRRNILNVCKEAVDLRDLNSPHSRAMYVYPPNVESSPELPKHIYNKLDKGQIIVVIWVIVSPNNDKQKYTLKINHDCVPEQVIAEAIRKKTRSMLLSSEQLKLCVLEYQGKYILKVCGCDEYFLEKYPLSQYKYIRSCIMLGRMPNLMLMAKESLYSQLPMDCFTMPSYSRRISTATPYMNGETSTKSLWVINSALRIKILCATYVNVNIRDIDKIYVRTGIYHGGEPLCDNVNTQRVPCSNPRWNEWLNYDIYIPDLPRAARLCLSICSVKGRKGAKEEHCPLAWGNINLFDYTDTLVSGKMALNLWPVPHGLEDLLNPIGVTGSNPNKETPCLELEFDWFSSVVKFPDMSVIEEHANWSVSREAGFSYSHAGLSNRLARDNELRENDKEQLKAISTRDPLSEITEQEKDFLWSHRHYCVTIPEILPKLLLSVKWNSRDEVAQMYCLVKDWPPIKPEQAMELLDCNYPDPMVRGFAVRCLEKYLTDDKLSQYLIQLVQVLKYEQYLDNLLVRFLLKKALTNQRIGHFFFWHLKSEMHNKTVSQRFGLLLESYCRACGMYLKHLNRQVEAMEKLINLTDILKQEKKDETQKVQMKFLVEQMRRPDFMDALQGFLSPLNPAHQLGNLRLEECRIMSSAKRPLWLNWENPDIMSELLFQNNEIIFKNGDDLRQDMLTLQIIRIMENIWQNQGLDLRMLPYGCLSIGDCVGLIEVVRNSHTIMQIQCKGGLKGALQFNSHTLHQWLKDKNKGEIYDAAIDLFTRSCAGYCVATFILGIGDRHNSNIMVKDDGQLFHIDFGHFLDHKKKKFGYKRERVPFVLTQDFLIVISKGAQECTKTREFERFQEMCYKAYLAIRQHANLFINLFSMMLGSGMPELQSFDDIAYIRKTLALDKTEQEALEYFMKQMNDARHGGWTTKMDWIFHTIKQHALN
T1 sequence (P27986 whole entry partner): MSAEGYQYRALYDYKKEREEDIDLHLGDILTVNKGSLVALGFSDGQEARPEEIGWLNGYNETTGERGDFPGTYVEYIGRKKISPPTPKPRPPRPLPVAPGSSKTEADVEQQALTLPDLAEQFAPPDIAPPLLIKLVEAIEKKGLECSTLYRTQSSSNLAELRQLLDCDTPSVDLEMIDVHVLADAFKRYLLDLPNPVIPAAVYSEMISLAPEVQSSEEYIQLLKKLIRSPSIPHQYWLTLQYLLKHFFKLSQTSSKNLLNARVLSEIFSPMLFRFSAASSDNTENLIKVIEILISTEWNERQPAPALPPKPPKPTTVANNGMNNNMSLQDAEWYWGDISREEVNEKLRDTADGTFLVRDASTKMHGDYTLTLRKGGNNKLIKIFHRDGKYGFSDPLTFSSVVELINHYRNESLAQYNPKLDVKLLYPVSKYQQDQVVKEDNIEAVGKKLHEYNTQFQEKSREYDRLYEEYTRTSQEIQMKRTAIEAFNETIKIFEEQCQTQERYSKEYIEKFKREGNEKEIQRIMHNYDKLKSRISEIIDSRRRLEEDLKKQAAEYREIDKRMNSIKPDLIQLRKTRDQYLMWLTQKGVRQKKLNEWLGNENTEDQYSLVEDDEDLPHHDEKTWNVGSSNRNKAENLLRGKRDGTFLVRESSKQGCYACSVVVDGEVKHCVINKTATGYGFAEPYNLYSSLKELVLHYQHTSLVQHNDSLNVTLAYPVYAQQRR

Take `CNS(=O)(=O)c1ccccc1NC(C)c1cc(C)cn2c(=O)cc(N3Cc4ccccc4C3)nc12` (stereo not shown) [Compound 835]: the IC50 is 100 to 500 nM and the “T47D pAKT S473 HTRF IC50 (H1047R): T47D (H1047R) selectivity over SKBR3 (WT)” value is “A (A denotes >20-fold)”. `Cc1cc(C(C)N(C)c2ccccc2S(N)(=O)=O)c2nc(N3Cc4ccccc4C3)cc(=O)n2c1` (stereo not shown) [Compound 836]: the 50% inhibitory concentration (IC50) was more than 2000 nM and the “T47D pAKT S473 HTRF IC50 (H1047R): T47D (H1047R) selectivity over SKBR3 (WT)” value is given as “C (C denotes ≤5-fold)”. In the same order, the values of `C=CC(=O)Nc1ccc(C(=O)O)c(NC(C)c2cc(C)cn3c(=O)cc(N4Cc5ccccc5C4)nc23)c1` (stereo not shown) [Compound 840] are more than 2000 nM and “C (C denotes ≤5-fold)”.

`Cc1cc([C@@H](C)Nc2ccccc2C(=O)O)c2nc(-c3ccc4[nH]nc(C)c4c3)cc(=O)n2c1` [Compound 841]: the “T47D pAKT S473 HTRF IC50 (H1047R): T47D (H1047R) selectivity over SKBR3 (WT)” value is given as “C (C denotes ≤5-fold)”. Regarding `Cc1cc(C(C)Nc2ccccc2C(=O)O)c2nc(N3C[C@H]4C[C@@H](C5CCN(S(C)(=O)=O)CC5)C[C@H]4C3)cc(=O)n2c1` (stereo partly shown) [Compound 843], the “T47D pAKT S473 HTRF IC50 (H1047R): T47D (H1047R) selectivity over SKBR3 (WT)” value is listed as “B (B denotes 20-fold≥value>5-fold)”. Regarding `Cc1cc(C(C)Nc2ccccc2C(=O)O)c2nc(N3C[C@H]4C[C@@H](C5CCN(S(=O)(=O)N(C)C)CC5)C[C@H]4C3)cc(=O)n2c1` (stereo partly shown) [Compound 844], the IC50 is 500 to 2000 nM and the “T47D pAKT S473 HTRF IC50 (H1047R): T47D (H1047R) selectivity over SKBR3 (WT)” value is reported as “B (B denotes 20-fold≥value>5-fold)”. As for `Cc1cc([C@@H](C)Nc2ccccc2-c2ccnnc2)c2nc(N3Cc4ccccc4C3)c(C3CC3)c(=O)n2c1` [Compound 847], the IC50 was more than 2000 nM and the “T47D pAKT S473 HTRF IC50 (H1047R): T47D (H1047R) selectivity over SKBR3 (WT)” value is reported as “C (C denotes ≤5-fold)”. Turning to `Cc1cc([C@@H](C)Nc2ccccc2C(=O)O)c2nc(N3CC4CC(F)(F)CC4C3)c(C)c(=O)n2c1` (stereo partly shown) [Compound 849], the IC50 was 100 to 500 nM and the “T47D pAKT S473 HTRF IC50 (H1047R): T47D (H1047R) selectivity over SKBR3 (WT)” value is “A (A denotes >20-fold)”. As to `Cc1cc([C@H](C)Nc2ccccc2C(=O)O)c2nc(N3CC4CC(F)(F)CC4C3)c(C)c(=O)n2c1` (stereo partly shown) [Compound 850], the IC50 was more than 2000 nM and the “T47D pAKT S473 HTRF IC50 (H1047R): T47D (H1047R) selectivity over SKBR3 (WT)” value is “C (C denotes ≤5-fold)”. Regarding `Cc1cc([C@@H](C)Nc2ccccc2C(=O)O)c2nc(-c3ccc4c(c3)COC4)cc(=O)n2c1` [Compound 851], the IC50 was less than 100 nM and the “T47D pAKT S473 HTRF IC50 (H1047R): T47D (H1047R) selectivity over SKBR3 (WT)” value is listed as “A (A denotes >20-fold)”.

With `Cc1cc([C@H](C)Nc2ccccc2C(=O)O)c2nc(-c3ccc4c(c3)COC4)cc(=O)n2c1` [Compound 852], the “T47D pAKT S473 HTRF IC50 (H1047R): T47D (H1047R) selectivity over SKBR3 (WT)” value is “C (C denotes ≤5-fold)”. `Cc1cc([C@@H](C)Nc2ccccc2C(=O)O)c2nc(-c3ccc4c(c3)CC(F)(F)C4)c(C)c(=O)n2c1` [Compound 853]: the IC50 is less than 100 nM and the “T47D pAKT S473 HTRF IC50 (H1047R): T47D (H1047R) selectivity over SKBR3 (WT)” value is “A (A denotes >20-fold)”. For the compound `Cc1cc([C@H](C)Nc2ccccc2C(=O)O)c2nc(-c3ccc4c(c3)CC(F)(F)C4)cc(=O)n2c1` [Compound 854], the IC50 is more than 2000 nM. Regarding `Cc1cc(C(C)Nc2ccccc2C(=O)O)c2nc(-c3ccc4c(n3)c(C)nn4C)cc(=O)n2c1` (stereo not shown) [Compound 858], the IC50 lay within 100 to 500 nM and the “T47D pAKT S473 HTRF IC50 (H1047R): T47D (H1047R) selectivity over SKBR3 (WT)” value is reported as “A (A denotes >20-fold)”.

In the case of `Cc1cc(C(C)Nc2ccccc2C(=O)O)c2nc(-c3ccc4c(n3)c(C)nn4C)c(C)c(=O)n2c1` (stereo not shown) [Compound 859], the IC50 fell in the range of 100 to 500 nM and the “T47D pAKT S473 HTRF IC50 (H1047R): T47D (H1047R) selectivity over SKBR3 (WT)” value is recorded as “A (A denotes >20-fold)”. The matching figures for `COc1cccc(NC(C)c2cc(C)cn3c(=O)cc(N4Cc5ccccc5C4)nc23)c1CO` (stereo not shown) [Compound 865]: more than 2000 nM and “C (C denotes ≤5-fold)”. With `Cc1cc([C@@H](C)Nc2ccccc2C(=O)O)c2nc(N3C[C@H](C)C[C@H](C(F)F)C3)cc(=O)n2c1` [Compound 868], the IC50 lay in the range of 500 to 2000 nM and the “T47D pAKT S473 HTRF IC50 (H1047R): T47D (H1047R) selectivity over SKBR3 (WT)” value is recorded as “B (B denotes 20-fold≥value>5-fold)”.

As for `Cc1cc(C(C)Nc2ccccc2C(=O)O)c2nc(-c3ccc4c(c3)c(N)nn4C3CC3)cc(=O)n2c1` (stereo not shown) [Compound 870], the IC50 fell in the range of 100 to 500 nM and the “T47D pAKT S473 HTRF IC50 (H1047R): T47D (H1047R) selectivity over SKBR3 (WT)” value is on record as “A (A denotes >20-fold)”. As to `C=CC(=O)Nc1ccc(C(=O)O)c(N[C@H](C)c2cc(C)cn3c(=O)cc(N4CCOCC4)nc23)c1` [Compound 872], the IC50 was more than 2000 nM and the “T47D pAKT S473 HTRF IC50 (H1047R): T47D (H1047R) selectivity over SKBR3 (WT)” value was “C (C denotes ≤5-fold)”.

On to `C=CC(=O)Nc1ccc(C(=O)O)c(N[C@@H](C)c2cc(C)cn3c(=O)cc(N4CCOCC4)nc23)c1` [Compound 873], for which the IC50 was more than 2000 nM and the “T47D pAKT S473 HTRF IC50 (H1047R): T47D (H1047R) selectivity over SKBR3 (WT)” value was “C (C denotes ≤5-fold)”. `Cc1cc([C@@H](C)Nc2ccccc2-c2ccnnc2)c2nc(N3Cc4ccccc4C3)c(C3CC3)c(=O)n2c1` [Compound 874] came in with an IC50 of more than 2000 nM.

For `Cc1cc([C@H](C)Nc2ccccc2-c2ccnnc2)c2nc(N3Cc4ccccc4C3)c(C3CC3)c(=O)n2c1` [Compound 875], the IC50 was less than 100 nM and the “T47D pAKT S473 HTRF IC50 (H1047R): T47D (H1047R) selectivity over SKBR3 (WT)” value is reported as “A (A denotes >20-fold)”. In the case of `Cc1cc([C@@H](C)NCc2cccnn2)c2nc(N3Cc4ccccc4C3)cc(=O)n2c1` [Compound 876], the IC50 was more than 2000 nM and the “T47D pAKT S473 HTRF IC50 (H1047R): T47D (H1047R) selectivity over SKBR3 (WT)” value is “C (C denotes ≤5-fold)”.

For the compound `Cc1cc(C(C)Nc2ccccc2-c2nnn[nH]2)c2nc(N3Cc4ccccc4C3)cc(=O)n2c1` (stereo not shown) [Compound 877], the IC50 lay in the range of 100 to 500 nM and the “T47D pAKT S473 HTRF IC50 (H1047R): T47D (H1047R) selectivity over SKBR3 (WT)” value is “A (A denotes >20-fold)”. Take `Cc1cc(C(C)Nc2ccccc2C(=O)O)c2nc(-c3ccc4c(c3)c(C)nn4C3CC3)cc(=O)n2c1` (stereo not shown) [Compound 890]: the IC50 was less than 100 nM and the “T47D pAKT S473 HTRF IC50 (H1047R): T47D (H1047R) selectivity over SKBR3 (WT)” value is “A (A denotes >20-fold)”. With `CC(Nc1ccccc1C(=O)O)c1cc(C(F)(F)F)cn2c(=O)cc(N3C[C@@H](C)O[C@@H](C)C3)nc12` (stereo partly shown) [Compound 898], the “T47D pAKT S473 HTRF IC50 (H1047R): T47D (H1047R) selectivity over SKBR3 (WT)” value is recorded as “A (A denotes >20-fold)”.

In the case of `Cc1cc(C(C)Nc2ccccc2C(=O)O)c2nc(C3C[C@@H](C)O[C@@H](C)C3)c(C)c(=O)n2c1` (stereo partly shown) [Compound 901], the “T47D pAKT S473 HTRF IC50 (H1047R): T47D (H1047R) selectivity over SKBR3 (WT)” value is on record as “A (A denotes >20-fold)”. As for `Cc1cc([C@H](C)Nc2ccccc2C(=O)O)c2nc(-c3ccc4c(c3)c(C)cn4C)c(C)c(=O)n2c1` [Compound 903], the IC50 was 500 to 2000 nM and the “T47D pAKT S473 HTRF IC50 (H1047R): T47D (H1047R) selectivity over SKBR3 (WT)” value is recorded as “B (B denotes 20-fold≥value>5-fold)”.

As to `Cc1cc(C(C)Nc2ccccc2C(=O)O)c2nc(N3CC4(CCOCC4)C3)c(C)c(=O)n2c1` (stereo not shown) [Compound 904], the IC50 was 100 to 500 nM and the “T47D pAKT S473 HTRF IC50 (H1047R): T47D (H1047R) selectivity over SKBR3 (WT)” value is given as “A (A denotes >20-fold)”. Regarding `Cc1cc([C@@H](C)N[C@@H]2CCCC[C@@H]2C(=O)O)c2nc(N3CCOCC3)cc(=O)n2c1` [Compound 905], the IC50 was more than 2000 nM and the “T47D pAKT S473 HTRF IC50 (H1047R): T47D (H1047R) selectivity over SKBR3 (WT)” value is “C (C denotes ≤5-fold)”. `Cc1cc([C@H](C)N[C@@H]2CCCC[C@@H]2C(=O)O)c2nc(N3CCOCC3)cc(=O)n2c1` [Compound 906]: the IC50 was more than 2000 nM and the “T47D pAKT S473 HTRF IC50 (H1047R): T47D (H1047R) selectivity over SKBR3 (WT)” value is reported as “C (C denotes ≤5-fold)”.

Broadly, the IC50 is the concentration at which inhibition is half-maximal. High values mean lower potency, low ones higher potency.

Values taken from US20260132129A1 (Genesis Therapeutics, Inc., priority 2022, published 2026).
